Consider 3 compounds from PMC7527053, “Structure of Merkel Cell Polyomavirus Capsid and Interaction with Its Glycosaminoglycan Attachment Receptor” (Journal of Virology, 2020).

Test [1] addresses T1, HPV-16 VLPs (L1- and L2-containing) (Human papillomavirus 16, UniProt P03101).
T1 construct: L1/L2 VLPs produced by the MCPyV VLP procedure (293TT cells) without the ion chromatography step; plasmids pshell16 and p16L1L2; with Minor capsid protein L2
In words: STD-NMR. Format: binding. The note with it: 10 uM VLP, 1 mM ligand, D2O, 283 K; buffer printed as PBS and as 150 mM NaCl, 20 mM KH2PO4 pH 7.4.

The target in test [2] is T2, MCPyV VLPs (VP1/VP2 virus-like particles) (Merkel cell polyomavirus, UniProt B0G0W3).
T2 construct: untagged icosahedral VLPs of 72 VP1 pentamers; VP1-only VLPs behaved the same; with Minor capsid protein VP2
Description: STD-NMR. Format: binding. The note with it: 10 uM VLP, 1 mM ligand, 150 mM NaCl, 1 mM CaCl2, D2O, 283 K.

Test [3] has as its target Merkel cell polyomavirus (MCPyV) major capsid protein VP1, assembled as virus-like particles (Merkel cell polyomavirus (MCC isolate 339)). Description: crystal structure; filled VLPs (fVLPs), crystals grown in 0.1 M sodium citrate pH 4.6, 30% MPD, 0.2 M NaCl at 20°C; 3.5 Å.
The target is the same in test [4]. Description: nonreducing SDS-PAGE; purified VLPs incubated with 10 mM DTT and/or 50 mM EDTA with 2% SDS for 1 h at ambient temperature; capsid to pentamers.

With `CO[C@H]1O[C@H](COS(=O)(=O)O)[C@@H](O[C@@H]2O[C@@H](C(=O)O)[C@@H](O[C@H]3O[C@H](COS(=O)(=O)O)[C@@H](O[C@@H]4O[C@H](C(=O)O)[C@@H](O[C@H]5O[C@H](COS(=O)(=O)O)[C@@H](O)[C@H](O)[C@H]5NS(=O)(=O)O)[C@H](O)[C@H]4O)[C@H](OS(=O)(=O)O)[C@H]3NS(=O)(=O)O)[C@H](O)[C@H]2OS(=O)(=O)O)[C@H](O)[C@H]1NS(=O)(=O)O` [Arixtra, GlcNS6Sα1-4GlcAα1-4GlcNS3S6Sα1-4IdoA2Sα1-4GlcNS6Sα-OMet], the STD-NMR entry in test [1] is reported as “the HPV-16 VLP Arixtra binding epitope is indistinguishable from the MCPyV VLP Arixtra epitope”; in test [2] (filled (and empty) VLPs), “we observed STD-NMR signals throughout the full length of the pentasaccharide”.

Consider “Merkel cell polyomavirus (MCPyV) major capsid protein VP1, assembled as virus-like particles (natural protein)”, for which the stoichiometry N in test [3] was 360; in test [4] it was 5.

Turning to `O=C(O)C1=C[C@H](O)[C@@H](OS(=O)(=O)O)[C@H](O[C@H]2[C@H](O)[C@@H](NS(=O)(=O)O)C(O)O[C@@H]2COS(=O)(=O)O)O1` (some centres unmarked) [HS-dp2, ΔUA2Sα1-4GlcNS6S], the STD-NMR result in test [2] (VP1-only and VP1/VP2 VLPs) was “an interaction between MCPyV VLPs and dp2 was unambiguously observed”.
